# Test results published in ChEMBL document CHEMBL1136590, “Synthesis, spectral studies and screening for amoebicidal activity of new palladium(II) complexes derived from thiophene-2-carboxaldehyde thiosemicarbazones” (Bioorg Med Chem Lett, 2003).
# Test system: Entamoeba histolytica
# Experiment: In vitro amoebicidal activity against HM-1:1MMS strain of Entamoeba histolytica
# Assay type: functional, organism-based
# Settings: not given
row,Molecule,IC50
1,thiophene-2-carbaldehyde N-(2-chlorobenzyl)thiosemicarbazone with PdCl2 complex,3.06 µM
2,"3,4-Dihydro-2H-quinoline-1-carbothioic acid thiophen-2-ylmethylene-hydrazide with PdCl2 complex",1.15 µM
3,Di(methylsulfinyl)methane with PdCl2 complex,8.24 µM
4,"thiophene-2-carbaldehyde N-(2,6-difluorophenyl)thiosemicarbazone with PdCl2 complex",2.41 µM
5,"thiophene-2-carbaldehyde N-(2,4-difluorophenyl)thiosemicarbazone with PdCl2 complex",2.65 µM

# Same assay, conditions: Entamoeba histolytica
row,Molecule,IC50
1,Fc1ccc(/N=C(\S)N/N=C/c2cccs2)c(F)c1,6.18 µM
2,S=C(N/N=C/c1cccs1)N1CCCc2ccccc21,2.78 µM
3,S=C(NCc1ccccc1Cl)N/N=C/c1cccs1,5.74 µM
4,Cc1ncc([N+](=O)[O-])n1CCO [METRONIDAZOLE],2.03 µM
5,Fc1cccc(F)c1/N=C(\S)N/N=C/c1cccs1,5.73 µM
6,S=C(N/N=C/c1cccs1)N1CCCC1,3.2 µM
